# Measured values: patent US11020488B2, “Pyrroloquinolin compounds and methods of using same” (The Regents of the University of California, priority 2017, dated 2021)
# Where two headings read alike, the source gives them in different places.
# How the values were obtained:
# PANC-1 cell line [1] = assay: cells; conditions: for fold decrease in PANC-1 potency (PP<) relative to makaluvamine J (9) / fold decrease in PANC-1 potency (PP<) relative to makaluvamine A (1): '<' in PP codes a decrease in potency; for PANC-1 cytotoxic potency (words): PANC-1 (set of b111: PANC-1 and/or OVCAR tumor cells)
# Source text: The task of IC50 assessment for the natural products isolated in this study against the PANC-1 tumor cells line began immediately following the purification and characterization of each pyrrolo[4,3,2-de]quinoline obtained (FIG. 3). […] However, a sample of ammosamide B (17) was obtained from the NCI Molecular Targets Laboratory. Two additional clinically used compounds, etoposide and teniposide were also run in the assay.
# The soft agar disk diffusion assay, IC50 determination, and clonogenic assay were performed as previously described.
# OVCAR-5 [2] = assay: IC50 determination against OVCAR-5 ovarian cancer cell line; format: cell-based, human; conditions: for IC50: OVCAR-5, values of the text
# Protocol: The soft agar disk diffusion assay, IC50 determination, and clonogenic assay were performed as previously described [35].
# PANC-1 cell line [3] = conditions: cited from earlier work; for IC50: read-out: PANC-1 IC50, PANC-1, literature data, refs [25], [26], [30]
# OVCAR-3 = conditions: first value of OVCAR-3/-5 cell, refs [9], [38], NCI-DTP database; cited from earlier work
# OVCAR-5 [4] = conditions: second value of OVCAR-3/-5 cell, ref [9], NCI-DTP database; cited from earlier work
# KB xenografts = conditions: KB mouse model xenografts, ref [9]; cited from earlier work
# HCT-116 cells = assay: Clonogenic dose-response assay, continuous exposure; format: cell-based
# Source text: FIG. 7 Evaluation of makaluvamine J (9) through clonogenic dose-response evaluation employing HCT-116 cells. Continuous exposure of the cells with 9 at different concentrations during periods of: 2 hr, 24 hr, or 120 hr. Efficacy is indicated when the surviving fraction is less than 0.1.
# Accurate determination of the exposures required to achieve a useful in vivo therapeutic effect is the outcome being sought through clonogenic study. Illustrated here are data measuring the cytotoxic effect of makaluvamine J (9) at varying concentrations during continuous exposure. Other relevant data to be obtained in the future consists of: (a) repeating the clonogenic runs on makaluvamine acetate J (15), (b) obtaining the maximum tolerated dose (MTD) for both, and (c) assessing the pharmacokinetic behavior of these compounds measured in both plasma and tumors, (PANC-1 and OVC-5) at the MTD which will be tracked through by MS^2 data. The key measurement involved determining the required time-concentration profile to obtain a 90% kill (10% survival-S10) of tumor cells. […] At this juncture it appears that a chronic exposure for five days will be effective and the exact therapeutics regime will depend on the MTD determination data and future pharmacokinetic results.
# [5] = read-out: PANC-1 IC50, PANC-1 pancreatic tumor cell line
# [6] = Homo sapiens, PANC-1, read-out: PANC-1 IC50, PANC-1 pancreatic tumor cell line
compound,measurement,setting,value
"8,15-O-diacetyl-8-hydroxy-5a,7,8a-trien-makaluvamine J",fold decrease in PANC-1 potency (PP<) relative to makaluvamine J (9),PANC-1 cell line [1]; ratio of PANC-1 IC50,~10 fold
same,IC50,PANC-1 cell line [1]; [5],590 nM
9-N-acetyl makaluvamine B [9-N-acetyl makaluvamine B (14)],fold decrease in PANC-1 potency (PP<) relative to makaluvamine A (1),PANC-1 cell line [1]; ratio of PANC-1 IC50,> 200 fold
same,IC50,PANC-1 cell line [1]; [5],91000 nM
15-O-acetyl makaluvamine J [15-O-acetyl makaluvamine J (15)],IC50,OVCAR-5 [2],8.6 nM
same,fold increase in OVCAR-5 potency over makaluvamine J (9),OVCAR-5 [2]; ratio of OVCAR-5 IC50,14 fold
same,PANC-1 cytotoxic potency (words),PANC-1 cell line [1],most potent IC50 values
same,fold decrease in PANC-1 potency (PP<) relative to makaluvamine J (9),PANC-1 cell line [1]; ratio of PANC-1 IC50,1.5 fold
same,IC50,PANC-1 cell line [1]; [5],81 nM
"O=C1C(NCc2ccc(F)cc2)=CC2=NCCc3c[nH]c1c32 [FBA-TBQ (18), 7-(4-fluorobenzylamino)-1,3,4,8-tetrahydropyrrolo[4,3,2-de]quinolin-8(1H)-one, reference compound]",cytotoxicity against PANC-1 cells (words),PANC-1 cell line [3],moderate cytotoxicity
same,IC50,PANC-1 cell line [3],110 nM
same,IC50,OVCAR-3,950 nM
same,less potent than makaluvamine J (9) against PANC-1,PANC-1 cell line [1]; comparison of PANC-1 IC50 with 9,~50%
"CN1C(=O)c2cc(C(N)=O)nc3c(N)c(Cl)c(N)c1c23 [ammosamide B (17), ammosamide B, reference compound]",IC50,PANC-1 cell line [1]; [5],26000 nM
"CN1CCc2cn(C)c3c2C1=CC(=O)C3=O [damirone A (5), damirone A]",IC50,PANC-1 cell line [1]; [5],160000 nM
"CN1CCc2c[nH]c3c2C1=CC(=O)C3=O [damirone B (3), damirone B]",IC50,PANC-1 cell line [1]; [5],19000 nM
"COc1cc([C@@H]2c3cc4c(cc3[C@@H](O[C@@H]3O[C@@H]5CO[C@@H](C)O[C@H]5[C@H](O)[C@H]3O)[C@H]3COC(=O)[C@H]23)OCO4)cc(OC)c1O [etoposide, reference compound]",IC50,PANC-1 cell line [1]; [6],390 nM
Nc1ccn([C@@H]2O[C@H](CO)[C@@H](O)C2(F)F)c(=O)n1 [gemcitabine],IC50,PANC-1 cell line [3],7200 nM
CSc1c2c3c(n1C)C(=O)C(N)=C(Cl)C3=NCC2 [isobatzelline A],cytotoxicity against PANC-1 cells (words),PANC-1 cell line [3]; literature surveys,moderate cytotoxicity
"Cn1cc2c3c1C(=O)C(N)=C(Cl)C3=NCC2 [isobatzelline C (19), isobatzelline C]",cytotoxicity against PANC-1 cells (words),"PANC-1 cell line [3]; literature surveys, listed as 19",relatively inactive
same,cytotoxicity against PANC-1 cells (words),"PANC-1 cell line [3]; literature surveys, listed as isobatzelline C",moderate cytotoxicity
same,IC50,PANC-1 cell line [3],10000 nM
CSc1c2ccnc3c2c(n1C)C(=O)C(N)=C3Cl [isobatzelline D],cytotoxicity against PANC-1 cells (words),PANC-1 cell line [3]; literature surveys,moderate cytotoxicity
"Cn1cc2c3c1C(=O)C(N)=CC3=NCC2 [makaluvamine A (1), makaluvamine A]",IC50,PANC-1 cell line [1]; [5],450 nM
"C[N+]1=C2C=C(N)C(=O)c3[nH]cc(c32)CC1.[Cl-] [makaluvamine C (2), makaluvamine C]",IC50,OVCAR-3,240 nM
same,fold decrease in PANC-1 potency (PP<) relative to makaluvamine J (9),PANC-1 cell line [1]; ratio of PANC-1 IC50,13.5 fold
same,IC50,PANC-1 cell line [1]; [5],730 nM
"Cn1cc2c3c1C(=O)C(N/C=C/c1ccc(O)cc1)=CC3=[N+](C)CC2 [makaluvamine G (8), makaluvamine G]",IC50,PANC-1 cell line [1]; [5],6200 nM
"Cn1cc2c3c1C(=O)C(N)=CC3=[N+](C)CC2.O=C([O-])C(F)(F)F [makaluvamine H (4), makaluvamine H]",IC50,OVCAR-5 [4],100 nM
same,T/C % (tumor volume in treated/tumor volume in untreated),KB xenografts,38%
same,IC50,OVCAR-3,960 nM
same,fold decrease in PANC-1 potency (PP<) relative to makaluvamine A (1),PANC-1 cell line [1]; ratio of PANC-1 IC50,7.9 fold
same,IC50,PANC-1 cell line [1]; [5],3600 nM
"C[N+]1=C2C=C(NCCc3ccc(O)cc3)C(=O)c3[nH]cc(c32)CC1 [makaluvamine J (9), makaluvamine J]",IC50,OVCAR-5 [2],120 nM
same,"2S10, concentration for 90% kill (10% survival)","HCT-116 cells; HCT-116, 2 h exposure, extrapolated",3 µg/mL
same,"24S10, concentration for 90% kill (10% survival)","HCT-116 cells; HCT-116, 24 h exposure",400 ng/mL
same,"120S10, concentration for 90% kill (10% survival)","HCT-116 cells; HCT-116, 120 h exposure",30 ng/mL
same,toxicity to HCT-116 cells,HCT-116 cells; two hour dosing schedule,Little toxicity
same,PANC-1 cytotoxic potency (words),PANC-1 cell line [1],most potent
same,PANC-1 cytotoxic potency (words),PANC-1 cell line [1]; listed as 9,most potent IC50 values
same,IC50,PANC-1 cell line [1]; [5],54 nM
"Cn1cc2c3c1C(=O)C(NCCc1ccc(O)cc1)=CC3=NCC2 [makaluvamine K (10), makaluvamine K]",fold decrease in PANC-1 potency (PP<) relative to makaluvamine A (1),PANC-1 cell line [1]; ratio of PANC-1 IC50,1.2 fold
same,fold decrease in PANC-1 potency (PP<) relative to makaluvamine J (9),PANC-1 cell line [1]; ratio of PANC-1 IC50,10.4 fold
same,IC50,PANC-1 cell line [1]; [5],560 nM
"C[N+]1=C2C=C(N/C=C/c3ccc(O)cc3)C(=O)c3[nH]cc(c32)CC1.O=C([O-])C(F)(F)F [makaluvamine L (11), makaluvamine L]",fold decrease in PANC-1 potency (PP<) relative to makaluvamine J (9),PANC-1 cell line [1]; ratio of PANC-1 IC50,35.0 fold
same,IC50,PANC-1 cell line [1]; [5],1900 nM
"Cn1cc2c3c1C(=O)C(NCCc1ccc(O)cc1)=CC3=[N+](C)CC2.[Cl-] [makaluvamine P (12), makaluvamine P]",fold increase in PANC-1 potency (PP>) relative to makaluvamine H (4),"PANC-1 cell line [1]; ratio of PANC-1 IC50, '>' in PP codes an increase in potency",12.3
same,IC50,PANC-1 cell line [1]; [5],300 nM
N=C1C(Cl)=C(N)C(=O)c2[nH]cc(C(O)CO)c21 (stereo not drawn) [secobatzelline A],cytotoxicity against PANC-1 cells (words),PANC-1 cell line [3]; literature surveys,moderate cytotoxicity
"COc1cc([C@@H]2c3cc4c(cc3[C@@H](O[C@@H]3O[C@@H]5CO[C@@H](c6cccs6)O[C@H]5[C@H](O)[C@H]3O)[C@H]3COC(=O)[C@H]23)OCO4)cc(OC)c1O [teniposide, reference compound]",IC50,PANC-1 cell line [1]; [6],40 nM
same,IC50,PANC-1 cell line [1]; [5],41 nM
damirone D [damirone D (6)],IC50,PANC-1 cell line [1]; [5],3400 nM
makaluvamine D [makaluvamine D (7)],IC50,PANC-1 cell line [1]; [5],290 nM
makaluvamine I [reference compound],T/C % (tumor volume in treated/tumor volume in untreated),KB xenografts,34%
